One compound from PMC10491346, “Enzyme Mechanistic Studies of NMA1982, a Protein Tyrosine Phosphatase and Potential Virulence Factor in Neisseria meningitidis” (Research Square, 2023) can be followed below.

This experiment addresses T1, NMA1982 (Neisseria meningitidis, UniProt A1KVD0).
T1 construct: gene NMC1647
Nature of the experiment: biochemical.

T1 sequence (A1KVD0 entry or part of it): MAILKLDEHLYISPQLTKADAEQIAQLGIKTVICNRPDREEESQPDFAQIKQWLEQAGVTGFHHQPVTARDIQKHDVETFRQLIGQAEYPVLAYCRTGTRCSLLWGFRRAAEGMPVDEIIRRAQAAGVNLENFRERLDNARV

In general, IC50 refers to the concentration at which inhibition is half-maximal. The low end stands for higher potency, the high end for lower potency. `[O]=[V]([OH])([OH])[OH]` [sodium orthovanadate] showed an IC50 of 161 µM.
